Data from patent publication US20220047569A1, “METHOD AND COMPOUND FOR USE, IN TREATING AND/OR PREVENTING NETOSIS” (Jubilant EpiPad LLC, priority 2020, published 2022).

Experiments:
[1] = test system: Bleomycin (BLM)-induced mice fibrosis; assay: Bleomycin induced lung fibrosis model; format: in vivo, C57BL/6 male mice; conditions: 50 mg/kg, PO, BID
From the text: Bleomycin (BLM)-induced mice fibrosis is a well-established animal model used to study pathogenesis of lung fibrosis and to estimate the potential anti-fibrotic agents. C57BL/6 male mice at 6-8 weeks of age were purchased from vivo biotech India (under the license from Taconic). The procedures involving the care and use of animals in the study was reviewed and approved by the Institutional Animal Care and Use Committee (IAEC/JDC/2018-161R) prior to conduct. During the study, the care and use of animals was in accordance with the principles outlined in the Guide for the Care and Use of Laboratory Animals, 8th Edition, 2010 (National Research Council) and every effort was made to minimize suffering. The animals were acclimatized for 7 days prior to experimental use. Mice were caged with free access to food and fresh water in a temperature-controlled room (22° C.-24° C.) on a 12 h light/dark cycle. Pulmonary fibrosis was induced by invasive method in animals using single intra-tracheal administration of 50 μg bleomycin prepared in 50 μL of saline under isoflurane anaesthesia. […] Animals were monitored and evaluated for their body weight loss. […] Fibronectin was measured as a PD biomarker by RT-qPCR and fold change in mRNA level was calculated after normalizing to GAPDH. […] The Modified Ashcroft Index score was determined for the vehicle-treated control mice and the test compound treated mice.

EMT-6 cells = assay: Murine breast cancer efficacy model, EMT-6 allograft; format: in vivo, Balb/C female mice
Experimental: PAD4 is highly expressed in malignant tumours of various cell types, Here, the mouse mammary carcinoma of 4T1 and EMT6 cells were used as an experimental model. Mouse 4T1, and EMT-6, a breast cancer cell line was sourced from American Type Culture Collection (ATCC), USA. Cells were grown according to the product information. To establish allografts, the cells were harvested by trypsinization when they reached around 70 to 80% confluence. After harvesting, Balb/C female mice (7-8 weeks) were implanted with 4T1 (1 million cells/site) and EMT-6 (0.5 million cells/site) subcutaneously in the dorsal right flank of mice using a 1 mL BD syringe attached to a 24-gauge needle. When the tumors became palpable tumor measurement was initiated and at an approximate tumor volume of ˜110 and 93 mm3, respectively. Animals were randomized into different treatment groups keeping tumor volume and the number of animals/group similar across the groups and compound 143 treatment was initiated. […]
Tumor dimensions (length and breadth) were measured on days 1 (animal randomization based on tumor volume) and thrice weekly thereafter until study termination.
Tumor volumes were calculated using the formula (b2*1)*0.52 where l=length, b=breadth (Dusan Djokovic et al., BMC Cancer, 2010, 10:641). […]

N[C@@H]1CCCN(C(=O)c2cc3c4c(c2)nc(-c2cc5cccc(Cl)c5n2CC2CC2)n4CCO3)C1 [Compound 143, (R)-(3-aminopiperidin-1-yl)(2-(7-chloro-1-(cyclopropylmethyl)-1H-indol-2-yl)-3,4-dihydro-5-oxa-1,2a-diazaacenaphthylen-7-yl)methanone]
Lung weight ([1]; day 0 to 14, prophylactic): reduction in lung weight comparable to standard of care Nintedanib
Fibronectin mRNA ([1]; lung, RT-qPCR normalized to GAPDH): stronger reduction of fibronectin mRNA as compared to Nintedanib
TGI (percent tumor growth inhibition) (EMT-6 cells; 50 mg/kg, BID, PO, day 13, EMT-6): 42.6%
Body weight changes (EMT-6 cells; EMT-6 bearing mice, BID PO for 13 days): no significant body weight changes
